Measured values reported in US10632081B2, “Intralymphatic delivery of hyaluronan nanoparticle for cancer metastasis” (priority 2015, dated 2020).

Assays:
SAS-LN = experiment: Anti-lymphatic metastasis in spontaneous lymphatic metastasis model of SAS-LN; assay type: in vivo, BALB/c nude mice; conditions: iv, 3 mg Pt/kg, qw for 5 weeks, cervical lymph nodes by IVIS
Protocol: SAS-LN cells transfected with luciferase were suspended in PBS and were orthotropic implanted (2×10^5 cells per mouse) into the tongue of female BALB/c nude mice (6 to 8 weeks old). SAS-LN tumors were allowed to grow for 1 week. Cisplatin was administered by intravenous injection at dose of 3 mg Pt/kg, and CPHC008 was administered by subcutaneous injection into the buccal site at dose of 3 mg Pt/kg (n=10/group). All test articles were administrated once a week for 5 weeks. After sacrifice, cervical lymph nodes were collected to evaluate metastasis by bioluminescence imagine using IVIS.

[1] = Local toxicity assessment (Primary Dermal Irritation Index); assay type: in vivo, BALB/c mice; conditions: sc foot pad
Protocol: Mice were weighted and grouped into (1) vehicle; (2) 0.3 mg Pt/kg oxaliplatin; (3) 1 mg Pt/kg oxaliplatin; (4) 3 mg Pt/kg Oxaliplatin; (5) 0.3 mg Pt/kg PtHC604; (6) 1 mg Pt/kg PtHC604; (7) 3 mg Pt/kg PtHC604, n=6/group. Each animal was treated once weekly for 4 weeks. The skin toxicities in the injection site were measured by erythema and oedema grading (Table 1). The skin toxicities potential was evaluated using Primary Dermal Irritation Index (PDII) by combining erythema and oedema grading, and classified into non-irritant, negligible-irritant, mild irritant, moderate irritant, and severe irritant (Table 2).

B16-F10-luc2 cells = experiment: In vitro cytotoxicity assay (MTT); assay type: cell-based, Murine; conditions: 48 h treatment
Protocol: B16-F10-luc2 cells were cultured in RPMI1640 medium supplemented with 10% heat-inactivated fetal bovine serum and maintained in a humidified 37° C., 5% CO2 incubator. B16-F10-luc2 cells were seeded on 96-well plate for 2×10^3 cells per well and incubated overnight at 37° C. Cells were treated with phosphate-buffered saline (PBS), oxaliplatin, or PtHC604 for 48 hours at 37° C. Cell viability was determined by MTT assay.

[2] = Lymphatic delivery of PtHC604 by different injection routes; assay type: in vivo, Sprague Dawley (SD) rats; conditions: iv, 9 mg Pt/kg, right axillary lymph node Pt
Protocol: […] […] […] Right axillary lymph nodes were harvested and stored at −80° C. until analysis. Platinum concentration in lymph nodes was analyzed by ICP-MS (THERMO XSERIES II).

[3] = Residual drug in injection site evaluation; conditions: 1 mg Pt/kg
Protocol: After 4, 24, 48, and 96 hours post-injection, animals were euthanized by CO2. Each foot was harvested and stored at −80° C. until analysis. Platinum concentration in each foot was analyzed by ICP-MS.

[4] = Lymphatic delivery of PtHC604 by subcutaneous injection in normal rats; assay type: in vivo, SD rats; conditions: sc mammary fat pad, 1 mg Pt/kg
Protocol: To evaluate the lymphatic delivery, SD rats were placed under isoflurane anesthesia and injected subcutaneously into the right mammary fat pad with PtHC604, PtHC16001 or oxaliplatin (1 mg Pt/kg). […] Right axillary lymph nodes, sciatic nerves and plasma were harvested and stored at −80° C. until analysis. Platinum concentrations in lymph nodes and sciatic nerves were analyzed by ICP-MS. Platinum concentration in plasma was analyzed by ICP-OES.

B16-F10-luc2 = experiment: Survival rate and anti-lymphatic metastasis in spontaneous lymphatic metastasis model of B16-F10-luc2; assay type: in vivo, C57BL/6 mice; conditions: for volume of popliteal lymph node (mean±SEM): 3 mg Pt/kg twice a week for 2 weeks
From the text: Prior inoculation of the cells, B16-F10-luc2 cells were harvested during the exponential growth period and washed twice with sterile PBS, and then suspended in PBS with 50% Matrigel (BD Biosciences). Respective 3×10^5 B16-F10-luc2 cells were implanted subcutaneously into the right hind foot pad of female C57BL/6 mice (6 to 8 weeks old). B16-F10-luc2 tumors were allowed to grow for 5 weeks, and the tumor cells spontaneously metastasized to regional popliteal lymph node. Lymphatic metastasis was confirmed by bioluminescence imagine using IVIS spectrum. Oxaliplatin was administered by intravenous or subcutaneous injection at the dose of 3 mg Pt/kg, and PtHC604 was administered by subcutaneous injection into the footpad at the same dose of 3 mg Pt/kg. All test articles were administrated twice a week for 2 weeks (n=6-8/group in one independent experiment). Tumor size was measured by calipers and converted into tumor volume using the following formula: V=LS^2/2 (where L is the longest diameter and S is the shortest diameter). Death was defined when mice dead or tumor volumes were >3000 mm^3. At the end of study, mice were sacrificed and the popliteal lymph node was collected for measurement. The volume of lymph node was measured by the same formula above: V=LS^2/2.

[5] = 0.3 mg Pt/kg once weekly for 4 weeks
[6] = 1 mg Pt/kg once weekly for 4 weeks
[7] = 3 mg Pt/kg once weekly for 4 weeks

Structure (SMILES) | Lymphatic metastasis (metastatic ratio) (SAS-LN) [%] | Lymphatic metastasis (metastatic ratio) (SAS-LN; listed as cisplatin) [%] | Classification of dermal irritation [1, 5] | Dermal irritation index [1, 5] | Classification of dermal irritation [1, 6] | Dermal irritation index [1, 6] | Classification of dermal irritation [1, 7] | Dermal irritation index [1, 7] | Classification of dermal irritation ([1]; 3 mg Pt/kg once weekly for 4 weeks, listed as oxaliplatin) | IC50 (B16-F10-luc2 cells) [nM] | Lymphatic AUC0-96 h [2] [µg·h/g] | residual Pt detected in the foot ([3]; 24 hour after sc footpad injection) [%] | Pt exposure in the foot ([3]; sc footpad injection, up to 96 hours) [µg·h/mL] | AUC (96 h) (h * ug/g) Lymph node ([4]; axillary lymph node Pt) [µg·h/g] | AUC (96 h) (h * ug/g) Plasma ([4]; plasma Pt) [µg·h/g] | AUC (96 h) (h * ug/g) Sciatic nerve ([4]; sciatic nerve Pt) [µg·h/g] | volume of popliteal lymph node (mean±SEM) (B16-F10-luc2; intravenous injection) [mm^3] | Median survival days (B16-F10-luc2; iv, 3 mg Pt/kg, biw, mice bearing metastatic melanoma) [days] | volume of popliteal lymph node (mean±SEM) (B16-F10-luc2; subcutaneous injection) [mm^3]
N.N.[Cl][Pt][Cl] [Cisplatin] | 78 | 78 | – | – | – | – | – | – | – | – | – | – | – | – | – | – | – | – | –
O=C1[O][Pt]2([NH][C@@H]3CCCC[C@H]3[NH]2)[O]C1=O [Oxaliplatin, oxaliplatin] | – | – | Non-irritation | 0 | Mild irritation | 0.5 | Severe irritation | 4.8 | Severe skin toxicities | 650 | 468.7 | 29 | 4089 | 66.0 | 6.7 | 12.0 | 72.7±46.2 | 7 | 129.2±103.9
